Measurements taken from paper PMC11352108, “Anti-Biofilm and Anti-Inflammatory Properties of the Truncated Analogs of the Scorpion Venom-Derived Peptide IsCT against Pseudomonas aeruginosa” (Antibiotics, 2024).
Values joined by “and” are separate entries in the source; they are usually repeats but may differ in a detail not shown here. Equal values may be shown once. Where no end group is shown, it is not given here.

Legend:
[1] = tested on: pyocyanin production by P. aeruginosa PAO1; assay: Pyocyanin assay (chloroform extraction); format: cell-based, Pseudomonas aeruginosa; conditions: 24 h, 37 °C; for Pyocyanin production (%control), Exp.1: replicate Exp.1; for Pyocyanin production (%control), Mean: mean of Exp.1-3; for Pyocyanin production (%control), Exp.2: replicate Exp.2; for Pyocyanin production (%control), Exp.3: replicate Exp.3
Description: The effect of IsCT-Δ6-8 peptide on the production of pyocyanin pigments produced by P. aeruginosa PAO1 was assessed using the protocol described previously. In brief, 750 μL of P. aeruginosa culture (10^8 CFU/mL, final concentration) and 250 μL of the test peptide prepared in LB broth (final concentrations ranged from 37.5 μM to 150 μM) were incubated at 37 °C for 24 h with agitation (150 rpm). A P. aeruginosa culture without the IsCT-Δ6-8 peptide served as an untreated control. Thereafter, supernatants were collected by centrifugation at 3900× g for 10 min, and pyocyanin pigment was extracted twice using chloroform/0.2 N HCl. Centrifugation was performed at 3900× g for 10 min before the pink-colored solution was collected, and the absorbance was measured at […].

[2] = tested on: IL-6 production in P. aeruginosa LPS-stimulated RAW 264.7 macrophages; assay: IL-6 measurement (sandwich ELISA); format: cell-based, murine; conditions: 48 h; for IL-6 (pg/mL), Exp.1: replicate Exp.1; for IL-6 (pg/mL), Mean: mean of 2 experiments, LPS alone 4081.029; for IL-6 (pg/mL), Exp.2: replicate Exp.2
Description: (§1) RAW 264.7 cells (3.5 × 10^5) were stimulated with P. aeruginosa lipopolysaccharide (100 ng/mL; Sigma, St. Louis, MO, USA) in the presence or absence of the IsCT-Δ6-8 peptide (37.5–150 μM, final concentration). After incubation at 37 °C under 5% CO2 for 48 h, supernatants were collected. The levels of nitrite (a stable breakdown of NO) were then determined using the Griess reagent system (Promega, Madison, Wisconsin, USA). The IL-6 levels in culture supernatant were quantified with the BioLegend ELISA MAXTM Deluxe Set according to the manufacturer’s protocols.

[3] = tested on: P. aeruginosa PAO1 biofilms; assay: Biofilm susceptibility assay (crystal violet); format: cell-based, Pseudomonas aeruginosa; conditions: 150 μM, 24 h, 37 °C, 10^6 CFU/mL, OD 550 nm, compared with untreated control
Description: The effect of the truncated IsCT analogs on biofilms of P. aeruginosa was assessed using a method that was described previously. Briefly, 100 μL of the test peptides (final concentration, 150 μM) was added to each well of a 96-well microtiter plate (Nunc^TM, Roskilde, Denmark). Then, an aliquot of P. aeruginosa PAO1 culture was added to each well to obtain a final concentration of 10^6 CFU/mL. The bacterial culture alone was included as an untreated control. Following a 24-h incubation at 37 °C, unattached planktonic cells were discarded, and the wells were carefully washed twice with PBS with a pH of 7.4. Thereafter, biofilm biomasses were quantified by 0.1% crystal violet staining. After excess stains were discarded, the wells were washed with PBS pH 7.4 and left to air dry for 2 h at 37 °C. The biofilm biomass was subsequently dissolved by the addition of 30% acetic acid, and the plates were spectrophotometrically read at 550 nm using a BioTek Synergy HT microplate reader.

P. aeruginosa PAO1 = assay: Growth curve assay; format: cell-based, Pseudomonas aeruginosa; conditions: 150 μM; for OD600nm, Mean / OD600nm, Exp.1 / OD600nm, Exp.2: 37 °C, 150 rpm; for OD600nm, Mean: mean of 2 experiments; for OD600nm, Exp.1: replicate Exp.1; for OD600nm, Exp.2: replicate Exp.2
Description: The effect of the IsCT-Δ6-8 peptide on the growth of P. aeruginosa was assessed as previously described. A culture of P. aeruginosa PAO1 was grown at a concentration of 10^6 CFU/ mL in the presence or absence of the IsCT-Δ6-8 peptide (final concentration, 150 µM) at 37 °C, with agitation at 150 rpm. The OD600 nm was then recorded at 0, 6, 12, 18, and 24 h.

[4] = tested on: NO production in P. aeruginosa LPS-stimulated RAW 264.7 macrophages; assay: Nitric oxide measurement (Griess reagent); format: cell-based, murine; conditions: 48 h; for Nitrite (µM), Exp.1: replicate Exp.1; for Nitrite (µM), Mean: mean of 2 experiments, LPS alone 24.5278; for Nitrite (µM), Exp.2: replicate Exp.2
Description: as §1

[5] = peptide 37.5 µM with LPS 100 ng/mL, 37 °C
[6] = peptide 37.5 µM with LPS 100 ng/mL
[7] = peptide 75 µM with LPS 100 ng/mL
[8] = peptide 150 µM with LPS 100 ng/mL

## ILGKIIKSLF [IsCT-Δ6-8]
[1]; 37.5 µM, 10^8 CFU/mL, LB broth, absorbance 380 nm
  Pyocyanin production (%control), Exp.1: 124.961 %control
[1]; 37.5 µM
  Pyocyanin production (%control), Mean: 82.972 %control
  Pyocyanin production (%control), Exp.2: 54.723 %control
  Pyocyanin production (%control), Exp.3: 69.231 %control
[1]; 75 µM
  Pyocyanin production (%control), Mean: 69.677 %control
  Pyocyanin production (%control), Exp.1: 120.493 %control
  Pyocyanin production (%control), Exp.2: 42.094 %control
  Pyocyanin production (%control), Exp.3: 46.444 %control
[1]; 150 µM
  Pyocyanin production (%control), Mean: 48.905 %control
  Pyocyanin production (%control), Exp.1: 76.348 %control
  Pyocyanin production (%control), Exp.2: 36.550 %control
  Pyocyanin production (%control), Exp.3: 33.817 %control
[2]; 37.5–150 μM, especially at 150 μM (p < 0.05 vs LPS-stimulated)
  Effect on LPS-induced IL-6 elevation (in words): reduced
[2]; [5]
  IL-6 (pg/mL), Exp.1: 4036.912 pg/mL
[2]; [6]
  IL-6 (pg/mL), Mean: 3742.794 pg/mL
  IL-6 (pg/mL), Exp.2: 3448.676 pg/mL
[2]; [7]
  IL-6 (pg/mL), Mean: 3664.363 pg/mL
  IL-6 (pg/mL), Exp.1: 3953.578 pg/mL
  IL-6 (pg/mL), Exp.2: 3375.147 pg/mL
[2]; [8]
  IL-6 (pg/mL), Mean: 3304.069 pg/mL
  IL-6 (pg/mL), Exp.1: 3514.853 pg/mL
  IL-6 (pg/mL), Exp.2: 3093.284 pg/mL
[3]
  Decrease in P. aeruginosa biofilm biomass: 33.12% and 33%
P. aeruginosa PAO1; 0 h
  OD600nm, Mean: 0.0000
  OD600nm, Exp.1: 0.0000
  OD600nm, Exp.2: 0.0000
P. aeruginosa PAO1; 6 h, untreated control 0.3954
  OD600nm, Mean: 0.2100
P. aeruginosa PAO1; 6 h, untreated control 0.3955
  OD600nm, Exp.1: 0.2055
P. aeruginosa PAO1; 6 h, untreated control 0.3953
  OD600nm, Exp.2: 0.2145
P. aeruginosa PAO1; 12 h, untreated control 0.5425
  OD600nm, Mean: 0.4723
P. aeruginosa PAO1; 12 h, untreated control 0.5353
  OD600nm, Exp.1: 0.4765
P. aeruginosa PAO1; 12 h, untreated control 0.5498
  OD600nm, Exp.2: 0.4680
P. aeruginosa PAO1; 18 h, untreated control 0.6067
  OD600nm, Mean: 0.5898
P. aeruginosa PAO1; 18 h, untreated control 0.6213
  OD600nm, Exp.1: 0.5830
P. aeruginosa PAO1; 18 h, untreated control 0.5922
  OD600nm, Exp.2: 0.5965
P. aeruginosa PAO1; 24 h, untreated control 0.6209
  OD600nm, Mean: 0.6033
P. aeruginosa PAO1; 24 h, untreated control 0.6330
  OD600nm, Exp.1: 0.5450
P. aeruginosa PAO1; 24 h, untreated control 0.6088
  OD600nm, Exp.2: 0.6615
P. aeruginosa PAO1; 6 h and 12 h, compared to untreated control culture
  Growth of P. aeruginosa at early time points (in words): slow growth rate
P. aeruginosa PAO1; 18 h and 24 h, versus untreated control (p > 0.05)
  Growth of P. aeruginosa after prolonged exposure (in words): comparable to that of the untreated control culture
[4]; 37.5–150 μM, in particular at 150 μM (p < 0.05 vs LPS-stimulated)
  Effect on LPS-induced nitrite increase (in words): reduced
[4]; [5]
  Nitrite (µM), Exp.1: 24.3889 µM
[4]; [6]
  Nitrite (µM), Mean: 24.2500 µM
  Nitrite (µM), Exp.2: 24.1111 µM
[4]; [7]
  Nitrite (µM), Mean: 23.5556 µM
  Nitrite (µM), Exp.1: 23.8889 µM
  Nitrite (µM), Exp.2: 23.2222 µM
[4]; [8]
  Nitrite (µM), Mean: 21.0833 µM
  Nitrite (µM), Exp.1: 21.5000 µM
  Nitrite (µM), Exp.2: 20.6667 µM
